Format in all cases: cell-based, human
For test [1], the system named is HCT116 cells. The experiment in a line: Metabolic profiling of tryptophan metabolite-treated cells, LC-MS. The note with it: 6 hours, QMAP. The protocol: […] Cell plates were lyophilized overnight before metabolite extraction. To extract metabolites, 1 ml of an extraction buffer composed of 2:2:1 methanol/acetonitrile/water with internal standards at 1 μg/ml each (D4-Citric Acid, 13C5-Glutamine, 13C5-Glutamic Acid, 13C6-Lysine, 13C5-Methionine, 13C3-Serine, D4-Succinic Acid, 13C11-Tryptophan, and D8-Valine; Cambridge Isotope Laboratories) was added to the lyophilized cell samples. Cells were scraped for 20 seconds and collected into Eppendorf tubes, flash-frozen in liquid nitrogen, and sonicated for 10 minutes.
(§1) Samples were then placed on a rotating platform at −20° C. for 1 hour and centrifuged at 4° C. for 10 minutes at 21,000×g. 300 μL of the cleared metabolite extracts were transferred to fresh tubes for additional processing. An equal volume of each extract was pooled to serve as a quality control (QC) sample, which was analyzed at the beginning, end, and at a regular interval throughout an instrument run. Extraction buffer alone was analyzed as a processing blank sample. Metabolite extracts, the quality control sample, and the processing blank were evaporated to dryness using a speed-vacuum.
Dried extracts were reconstituted in 30 μL of acetonitrile/water (1:1, V/V), vortexed for 10 minutes, and incubated at −20° C. for 18 hours. Samples were then centrifuged at 4° C. for 2 minutes at 21,000×g and the supernatant was transferred to autosampler vials for analysis.
For LC chromatographic separation, 2 μL of reconstituted metabolite extracts, QC sample, and processing blank were run on a Millipore SeQuant ZIC-PHILIC (2.1×150 mm, 5 um particle size, Millipore Sigma #150460) column with a ZIC-PHILIC guard column (20×2.1 mm, Millipore Sigma #150437) attached to a Thermo Vanquish Flex UHPLC. The mobile phase comprised Buffer A [20 mM (NH4)2CO3, 0.1% NH4OH (v/v)] and Buffer B [acetonitrile]. The chromatographic gradient was run at a flow rate of 0.150 mL/min as follows: 0-20 min-linear gradient from 80 to 20% Buffer B; 20-20.5 min-linear gradient from 20 to 80% Buffer B; and 20.5-28 min-hold at 80% Buffer B. Data were acquired using a Thermo Q Exactive MS operated in full-scan, polarity-switching mode with a spray voltage set to 3.0 kV, the heated capillary held at 275° C., and the HESI probe held at 350° C. The sheath gas flow was set to 40 units, the auxiliary gas flow was set to 15 units, and the sweep gas flow was set to 1 unit. MS data acquisition was performed with polarity switching in a range of m/z 70-1,000, with the resolution set at 70,000, the AGC target at 10e6, and the maximum injection time at 200 ms. The QC sample was analyzed at the beginning and end of the LC-MS run and after every 10 samples.
(§2) Acquired LC-MS and GC-MS data were processed using the Thermo Scientific TraceFinder software. Targeted metabolites were identified by matching accurate mass and retention times to the University of Iowa Metabolomics Core Facility's in-house library of confirmed standards. After peak area integration by TraceFinder, NOREVA software was applied for signal drift correction on a metabolite-to-metabolite basis using the pooled QC sample that had been analyzed throughout the instrument run. Within individual samples, Post-NOREVA metabolite levels were divided by the total metabolite load (sum of all metabolite values) to equally weight individual metabolites for comparison across samples.

The test system of the next test is 293T. The experiment in a line: CellTiter-Glo Luminescent Cell Viability Assay. The note with it: 2-fold dilution series, 48 hours, QMAP. As for the experimental part: (§3) HT29, 293T, U2OS, and 3T3-LI cells were plated on an opaque 96-well plate in 1:1 DMEM. […] At the appropriate time point, 100 μl of CellTiter-Glo reagent (Promega #G7570) was added to each well. The plate was gently mixed for 2 minutes to induce lysis, incubated at room-temperature for 10 minutes, and then luminescence was measured.
To test whether tryptophan inhibition of growth applied to other cell lines and persisted in conventional cell culture media, two human cancer cell lines (HT29, U2OS), a transformed human embryonic kidney cell line (293T), and a mouse, fibroblast-like cell line (3T3-L1) were grown in DMEM for 24 hours and then treated with 2 mM tryptophan or vehicle. After 24 hours, cells were assayed by CellTiter-Glo, which indicates cell viability by measuring ATP production.
(In general: In ATP-based viability assays light output follows the ATP content of the culture.)

For test [2], the system named is HCT116 cells. The experiment in a line: Activity metabolomics screen of tryptophan metabolites, GC-MS profiling. The note with it: 2 mM, 6 hours, QMAP. As for the experimental part:
6-well plates were treated for 6 hours with 2 mM of the indicated tryptophan metabolite for 6 hours before media was quickly removed, and plates were washed 2× with ice-cold PBS and 2× with ice-cold water before being snap frozen with liquid nitrogen. Cell plates were lyophilized overnight before metabolite extraction. To extract metabolites, 1 ml of an extraction buffer composed of 2:2:1 methanol/acetonitrile/water with internal standards at 1 μg/ml each (D4-Citric Acid, 13C5-Glutamine, 13C5-Glutamic Acid, 13C6-Lysine, 13C5-Methionine, 13C3-Serine, D4-Succinic Acid, 13C11-Tryptophan, and D8-Valine; Cambridge Isotope Laboratories) was added to the lyophilized cell samples. Cells were scraped for 20 seconds and collected into Eppendorf tubes, flash-frozen in liquid nitrogen, and sonicated for 10 minutes.
as §1
The dried metabolite extracts, QC sample, and processing blank sample, were derivatized using methoxyamine hydrochloride (MOX) and N,O-Bis (trimethylsilyl) trifluoroacetamide (TMS) (Sigma). Briefly, dried extracts were reconstituted in 30 μL of 11.4 mg/ml MOX in anhydrous pyridine (VWR), vortexed for 10 minutes, and heated at 60° C. for 1 hour. Next, 20 μL TMS was added to each reconstituted extract, vortexed for 1 minute, and heated at 60° C. for 30 min. The derivatized metabolite extracts, blanks, and QC were immediately analyzed using GC/MS.
GC chromatographic separation was conducted on a Thermo Trace 1300 GC with a TraceGold TG-5SilMS column (0.25 μM film thickness; 0.25 mm ID; 30 m length). An injection volume of 1 μL was used for all samples, blanks, and QCs. The GC was operated in split mode with the following settings: 20:1 split ratio; split flow: […], purge flow: 5 mL/min, Carrier mode: Constant Flow, Carrier flow rate: 1.2 mL/min). The GC inlet temperature was 250° C. The GC oven temperature gradient was as follows: 80° C. for 3 min, ramped at 20° C./min to a maximum temperature of 280° C., which was held for 8 min. The injection syringe was washed 3 times with pyridine between each sample. Metabolites were detected using a Thermo ISQ single quadrupole mass spectrometer. The data was acquired from 3.90 to 21.00 min in EI mode (70eV) by single ion monitoring (SIM).
as §2

The test system of the next test is U2OS. The experiment in a line: CellTiter-Glo Luminescent Cell Viability Assay. As to conditions: 2-fold dilution series, 48 hours, QMAP. As for the experimental part: as §3
To test whether tryptophan inhibition of growth applied to other cell lines and persisted in conventional cell culture media, two human cancer cell lines (HT29, U2OS), a transformed human embryonic kidney cell line (293T), and a mouse, fibroblast-like cell line (3T3-L1) were grown in DMEM for 24 hours and then treated with 2 mM tryptophan or vehicle. […]

Test [3] deals with HCT116 cells. The experiment in a line: Screen 2: metabolic profiling with unlabeled amino acids (LC-MS). The note with it: 6 hours; for increase in intracellular relative abundance of the amino acid used for treatment: 2 mM dose, relative to untreated cells. As for the experimental part:
Media was changed to QMAP plus individual amino acid treatments at the start of the experiment. 200 mM amino acid stocks were used to make the QMAP+individual amino acid treatment medias that were placed in the tissue culture incubator for 30-45 minutes prior to the start of the dosing for equilibration of media bicarbonate with incubator CO2. For metabolomic profiling experiments, cells were treated with additional amino acid doses of 0.5, 1 and 2 mM, and 1 mM was used for stable isotope tracing experiments. To minimize systematic error, each amino acid dose was added as a batch (20 amino acids+vehicle control) such that each well of each plate contained a different amino acid. The process was repeated for the other two concentrations of amino acids on the next plates to make set. This was repeated four more times to achieve the sample size of 5 replicates for each of the 3 doses of amino acids. Each plate was then incubated for 6 hours in the tissue culture incubator before being rapidly washed twice with sterile water and snap frozen on liquid nitrogen before being stored at −80° C. The next day, the plates were lyophilized for 90 minutes and then stored at −80° C.
Extraction buffer was prepared by adding 2:2:1 methanol: acetonitrile: water. For profiling, the following internal standards (Cambridge Isotope Laboratories) were added at 1 μg/mL each: L-Valine-D8, L-Aspartate (^13C4, D3, ^15N) and Succinate (13C4D4). 6-well plates were removed from storage at −80° C. and 1 ml of ice-cold extraction buffer was added. Plates were incubated at −20° C. for 5 minutes, scraped, transferred to microcentrifuge tubes and frozen in liquid nitrogen. Tubes were then placed into a sonicating water bath for 10 minutes and rotated at −20° C. for 1 hour before being centrifuged at 4° C. for 10 minutes at 21,000×g. […] of extract was dried down completely using a speed-vacuum (˜90 min), dissolved in […] of acetonitrile: water (1:1), vortexed for 10 min, and stored overnight at −20° C. to allow protein precipitation. Samples were then centrifuged at 4° C. for 10 minutes at 21,000×g and the supernatants were transferred into autosampler vials for analysis. For the QCs, […] of each extract was pooled, at the step prior to drying down, mixed and dried in […] amounts alongside the samples. Once dried, QCs were processed with the samples but recombined prior to being aliquoted into autosampler vials. All samples were then frozen at −80° C., and only one set of samples, which included a QC aliquot, was thawed, vortexed and placed into the instrument.
The sheath gas flow was set to 40 units, the auxiliary gas flow was set to 15 units and the sweep gas flow was set to 1 unit. […] For tracing, […] of sample was injected twice in either positive or negative mode to maximize detection efficiency and minimize metabolite crowding using the Sim-mode.
LC-MS data was processed using the Thermo Scientific TraceFinder 5.1 software.
The three cell lines were then treated with 0.5, 1, and 2 mM of individual, unlabeled amino acids, and metabolic profiling was performed to determine how individual amino acids quantitatively altered metabolite abundance (Screen 2).

For the next test, the system named is IDO1 mRNA. The test can be described thus: Quantitative PCR of IDO1 mRNA. As to conditions: 50 ng/μL for 24 hours, HCT116.

Regarding `Nc1c(O)cccc1C(=O)CC(N)C(=O)O` (stereo not shown) [3HK, 3-hydroxykynurenine], the increase of xanthommatin with HCT116 cells [1] (2 mM dose) is about 70 fold. Further, in the test on HCT116 cells [1] (2 mM), the “oxidized glutathione (GSSG) level” value is recorded as “significantly decreased” and the “reduced glutathione (GSH) level” value is “significantly decreased”. In addition, in the test with 293T, the cell viability result is listed as “dose-dependent decrease”. Also, in the test on HCT116 cells [2], the aconitate level entry is “significantly increased”; the citrate level entry is on record as “significantly increased”; the “disruption of TCA cycle metabolites” value is “more potent disruption than the other tryptophan metabolites”; the “distal TCA cycle metabolites” value was “drastically and significantly decreased”. Also, in the test with HCT116 cells [2], the “glucose 6-phosphate level” value is “Significantly increased”, the “ribose 5-phosphate level” value is “Significantly increased” and the “ribulose 5-phosphate level” value is “Significantly increased”. Besides, in the test on U2OS, the cell viability result is “dose-dependent decrease”.

Regarding `N[C@@H](CCC(=O)O)C(=O)O` [glutamate, L-glutamic acid], the “increase in intracellular relative abundance of the amino acid used for treatment” value in the test with HCT116 cells [3] (HCT116 cells) was 1.25 fold. Also, the TCA cycle intermediates entry in the test with HCT116 cells [3] (0.5, 1, 2 mM) is on record as “increased”.

On to `NC(=O)CC[C@H](N)C(=O)O` [glutamine, L-glutamine], for which, in the test with HCT116 cells [3] (HCT116 cells), the “increase in intracellular relative abundance of the amino acid used for treatment” value was about 80 fold. In addition, the TCA cycle intermediates result with HCT116 cells [3] (0.5, 1, 2 mM) was “increased”.

Consider `NCC(=O)O` [glycine, L-glycine], for which the serine level entry in the test with HCT116 cells [3] (0.5, 1, 2 mM, HCT116 cells) is on record as “proportional, dose-dependent increase”.

As for `N[C@@H](CO)C(=O)O` [serine, L-serine], the glycine levels result with HCT116 cells [3] (0.5, 1, 2 mM, HCT116 cells) is given as “did not increase”.

B1: IFN-γ: the known IDO potentiator IFN-γ (protein, UniProt P01579 24-161, looked up)
Interferon gamma: QDPYVKEAENLKKYFNAGHSDVADNGTLFLGILKNWKEESDRKIMQSQIVSFYFKLFKNFKDDQSIQKSVETIKEDMNVKFFNSNKKKRDDFEKLTNYSVTDLNVQRKAIHELIQVMAELSPAAKTGKRKRSQMLFRG
For the molecule B1, the “IDO1 mRNA” value with IDO1 mRNA is recorded as “increased”.
